Data from US8835617B2, “Polynucleotides encoding a human TRIM-Cyp fusion polypeptide, compositions thereof, and methods of using same” (priority 2008, dated 2014).

Columns and labels:
HIV-2ROD = HIV-2ROD GFP vector challenge of CRFK cells expressing T5 proteins; type: cell-based; details: in words
Text: (§1) Most HIV-1 plasmids and vectors have been described previously (Berthoux et al., 2004). pNL4-3 contains a complete infectious HIV-1 provirus. pNL4-3-R5 bears the V3 loop of the CCR5-tropic 92TH014-2 HIV-1 strain (Papkalla et al., 2002). To generate pNL4-3-GFP-IRES-Nef, enhanced green fluorescent protein (eGFP) and the ECMV (encephalomyocarditis virus) IRES (internal ribosome entry site) were inserted upstream of nef pNLΔenvGFP is pNL4-3 with an env-inactivating mutation and eGFP in place of nef. […] For biochemistry, hT5Cyps were cloned into the p3xFLAG-CMV-7.1 expression vector (Sigma) and HIV-1 CA was expressed as a GST-fusion using the EF1α promoter.
(§2) 2×10^4 adherent cells/well or 8×10^4 suspension cells/well were plated in 48-well plates (Nunc) for challenge with single-cycle GFP reporter vectors that were titered as indicated. GFP synthesis was assessed by flow cytometry 48 hrs post-infection. […] For infection of 10^6 primary CD4^+ T cells or macrophages, 15 ng p24/10^6 cells of a CXCR4- or CCR5-tropic HIV-1NL4-3 stock was used, and infection was monitored by assessing the accumulation of RT activity in the supernatant (Sayah et al., 2004). FACSCalibur, Cellquest Pro (Becton Dickinson), and FlowJo software (Treestar, Inc.) were used to record and analyze fluorescence. […]

Jurkat T cells = experiment: Growth and cell surface markers of transduced Jurkat T cells; details: CD4, CXCR4, CD11a, CD18, ICAM3, MHC-I
FIVPET = FIVPET GFP vector challenge of CRFK cells expressing T5 proteins; type: cell-based; details: in words
Text: as §1, §2

HIV-1NL4-3-IRES-GFP-Nef = experiment: Single-cycle cell-to-cell spreading assay, 293T donors and Jurkat targets; type: cell-based; details: protein expressed in 293T donor cells, 2 hours co-culture
Text: The mechanism underlying these observations has not yet been determined. […] This would implicate T5-mediated restriction both at post-entry and at a much later step in the viral life cycle (Sakuma et al., 2007; Zhang et al., 2008a). […] To assess the effects of donor and target cell T5Cyp on cell-to-cell spread of HIV-1, a single-cycle cell-to-cell spreading assay for HIV-1 infection was designed. 293T donor cell lines expressing control or indicated T5Cyp were transfected with HIV-1NL4-3-IRES-GFP-Nef provirus and supernatant was harvest during the first 48 hours to measure production of virus by RT activity. […] At the indicated time points dextran sulfate was added to the co-culture to block further infection and cells were harvested. 48 hours later the percentage of infected target Jurkat T cells was measured by flow cytometry (FIG. 53A). The magnitude of HIV-1 restriction in single cycle assays using cell-free virus is shown for recipient Jurkat T cell lines and donor 293 T cell lines is shown (FIG. 53B).

HIV-1 = tested on: HIV-1
Procedure: Since the objective was to engineer a fully human HIV-1 restriction factor, hCypA was the fused at 10 different positions along the length of hT5α (FIG. 44A).
2×10^4 adherent cells/well or 8×10^4 suspension cells/well were plated in 48-well plates (Nunc) for challenge with single-cycle GFP reporter vectors that were titered as indicated. GFP synthesis was assessed by flow cytometry 48 hrs post-infection. For spreading infection, 10^6 Jurkat cells were infected with 1 to 15 ng p24/10^6 cells of HIV-1NL4-3-GFP-IRES-Nef. Cells were split every 3 days, fixed in 0.5% paraformaldehyde/PBS, and assayed for GFP synthesis by flow cytometry. For infection of 10^6 primary CD4^+ T cells or macrophages, 15 ng p24/10^6 cells of a CXCR4- or CCR5-tropic HIV-1NL4-3 stock was used, and infection was monitored by assessing the accumulation of RT activity in the supernatant (Sayah et al., 2004). FACSCalibur, Cellquest Pro (Becton Dickinson), and FlowJo software (Treestar, Inc.) were used to record and analyze fluorescence. 1-5×10^5 events were acquired for analysis. […]
2×10^4 adherent cells/well or 8×10^4 suspension cells/well were plated in 48-well plates (Nunc) for challenge with single-cycle GFP reporter vectors that were titered as indicated. GFP synthesis was assessed by flow cytometry 48 hrs post-infection. […]

SIVAGMtan = SIVAGMtan GFP vector challenge of CRFK cells expressing T5 proteins; type: cell-based; details: in words
Text: as §1, §2

SIVMAC251 = SIVMAC251 GFP vector challenge of CRFK cells expressing T5 proteins; type: cell-based; details: in words
Text: as §1, §2

Substance	restriction of HIV-2ROD (HIV-2ROD)	growth kinetics and cell surface marker levels vs control vector (Jurkat T cells)	restriction of FIVPET (FIVPET)	infection of control target cells lower than with empty vector donors (HIV-1NL4-3-IRES-GFP-Nef) [fold]	magnitude of restriction with CypA knockdown (HIV-1; CypA KD vs Luc KD Jurkat T cells)	restriction of SIVAGMtan (SIVAGMtan)	restriction of SIVMAC251 (SIVMAC251)	HIV-1 restriction activity (HIV-1; in words, Jurkat T cells (b397 also THP-1 monocytes))
AoT5Cyp: Aotus (owl monkey) TRIM5-cyclophilin A fusion protein [reference compound]	blocked comparably	grew with the same kinetics and expressed similar levels	blocked comparably	3	Equivalent results	restricted all four lentiviruses	neither AoT5Cyp nor hT5Cyp can restrict this virus	
hT5Cyp: human TRIM5α fused at serine 322 to human cyclophilin A, SEQ ID NO:12	blocked comparably	grew with the same kinetics and expressed similar levels	blocked comparably	10		significantly better than AoT5Cyp at low MOI	neither AoT5Cyp nor hT5Cyp can restrict this virus	activity comparable to AoT5Cyp
